In US9340577B2, “HLA binding motifs and peptides and their uses” (priority 1992, dated 2016):
“And” between values parts separate entries of the source, which are not always exact repeats. Equal values may be shown once. No end group written: not given here.

How the values were obtained:
DRB1*0802 = DRB1*0802 (Homo sapiens, UniProt P01903+P01911, A100R/A103L/A169T/F76Y/H45Y/I96F/K41T/L162R/M171V/P40S/Q125H/Q178H/Q39Y/Q99D/R218S/R42G/S66Y/V115G/W38E); assay: biochemical; format: binding
DRB1*0901 = DRB1*0901 (Homo sapiens, UniProt P01903+P01911, A100R/A103E/D57H/D86V/F55Y/F60I/F76Y/I96F/K127E/L162R/M171V/P40D/Q125H/Q99R/R33Q/R42F/S133A/S66N/T210M/V115G/W38K/Y107V/Y59G/Y89S); assay: biochemical; format: binding
HLA-A*0201 (HLA-A2.1) = HLA-A*0201 (HLA-A2.1) (Homo sapiens, UniProt P04439, D140Y/D185E/D98H/E176V/E277Q/G131W/G231S/I119V/I121R/I166T/I218V/L300P/L318F/N151K/N90K/P208A/P217A/Q86G/Q94H/R138H/R169H/T345S); assay: biochemical; format: binding
A2.1 HLA molecules = A2.1 HLA molecules (Homo sapiens, UniProt P04439, D140Y/D185E/D98H/E176V/E277Q/G131W/G231S/I119V/I121R/I166T/I218V/L300P/L318F/N151K/N90K/P208A/P217A/Q86G/Q94H/R138H/R169H/T345S); format: binding; parameters: A*0201 / A2.1 Binding / A2 Bind. / A2 / A2.1 (binding capacity): scale not given here
DRB1*1101 = DRB1*1101 (Homo sapiens, UniProt P01903+P01911, A100R/A169T/A87E/I96F/K41T/L162R/M171V/P40S/Q125H/Q178H/Q39Y/Q99D/R42S/S66Y/T262R/V115G/W38E); assay: biochemical
DR7 (DRB1*0701) = DR7 (DRB1*0701) (Homo sapiens, UniProt P01903+P01911, A100R/A102G/A103Q/D57E/D86V/E43K/F76Y/K127E/L162R/M171V/P40G/Q125H/Q99D/R33Q/R42Y/R54Q/S133A/S66F/T210M/V115G/Y107V/Y59L/Y89S); assay: biochemical; format: binding
DRB5*0101 = DRB5*0101 (Homo sapiens, UniProt P01903+Q30154); assay: biochemical
HLA-A11 (A*1101) = HLA-A11 (A*1101) (Homo sapiens, UniProt P04439, A114D/D185E/E176A/F33Y/L180Q/S129P/T187R); assay: biochemical; format: binding; parameters: A11: unit not given here
HLA-A3.2 (A*0301) = HLA-A3.2 (A*0301) (Homo sapiens, UniProt P04439); assay: biochemical; format: binding; settings: Table 164, MAGE peptides; binding value to HLA-A3.2, no unit given

Chain of DRB1*1101 (P01903 26-254 limits assumed, other chains not shown): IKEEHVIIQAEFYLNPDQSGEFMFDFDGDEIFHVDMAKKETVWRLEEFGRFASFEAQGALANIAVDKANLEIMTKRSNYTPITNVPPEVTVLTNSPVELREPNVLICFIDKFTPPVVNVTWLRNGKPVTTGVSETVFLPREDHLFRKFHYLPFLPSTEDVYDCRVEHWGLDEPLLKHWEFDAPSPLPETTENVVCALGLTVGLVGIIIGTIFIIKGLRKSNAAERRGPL

Ac-NPDAENWNSQFEILEDAA [Peptide 725.01]
IC50 (DRB1*0802): > 25 µM

CYSLYGTTLEQQYNK [Peptide 85.0004]
IC50 (DRB1*0901): 26 µM

YEFLWGPRA
binding to HLA-A2.1 (column 3; no allele head shown for these rows) (HLA-A*0201 (HLA-A2.1)): 0
A2.1 relative binding (ratio of binding of test peptide relative to standard peptide) (A2.1 HLA molecules): 0

GVILYSDPADYFAPG [Peptide 68.0170]
IC50 (DRB1*0802): > 20 µM
IC50 (DRB1*1101; Binding affinity DRB1 *1101): > 20 µM

KVADLVGFLLL
binding to HLA-A2.1 (column 3; no allele head shown for these rows) (HLA-A*0201 (HLA-A2.1)): 0.020
A2 Bind. (A2.1 HLA molecules): 0.0200

LMVTVYYGV
IC50 (HLA-A*0201 (HLA-A2.1)): 0.0033 µM
A2 (A2.1 HLA molecules): 0.4400

FVNQHLCGSHLVEAL [Peptide 9000.0047]
IC50 (DR7 (DRB1*0701)): 6.79 µM

LLGDNQIMP
binding to HLA-A2.1 (column 3; no allele head shown for these rows) (HLA-A*0201 (HLA-A2.1)): 0.0001
A2.1 relative binding (ratio of binding of test peptide relative to standard peptide) (A2.1 HLA molecules): 0.0001

YLQLVFGIEV
binding to HLA-A2.1 (column 3; no allele head shown for these rows) (HLA-A*0201 (HLA-A2.1)): 0.37
A2 Bind. (A2.1 HLA molecules): 0.3700

CC[C@H](C)[C@H](NC(=O)[C@H](CC(N)=O)NC(=O)[C@H](C)NC(=O)[C@H](CC(=O)O)NC(=O)CNC(=O)[C@H](CCCCN)NC(=O)[C@H](CC(C)C)NC(=O)[C@H](Cc1c[nH]cn1)NC(=O)[C@@H](NC(=O)[C@@H](NC(=O)[C@@H]1CCCN1C(=O)[C@@H](NC(=O)[C@@H](N)[C@@H](C)O)[C@@H](C)O)[C@@H](C)CC)[C@@H](C)CC)C(=O)N[C@@H](CC(C)C)C(=O)N[C@@H](CCCCN)C(=O)O [Peptide 1601.25]
IC50 (DRB5*0101; Binding affinity DRB5 *0101): > 20 µM

VMIAMEGGHV
binding to HLA-A2.1 (column 3; no allele head shown for these rows) (HLA-A*0201 (HLA-A2.1)): 0.053
A2 Bind. (A2.1 HLA molecules): 0.0530

KMVELVHFLLL
binding to HLA-A2.1 (column 3; no allele head shown for these rows) (HLA-A*0201 (HLA-A2.1)): 0.67
A2 Bind. (A2.1 HLA molecules): 0.6700

WMELSVMEV
binding to HLA-A2.1 (column 3; no allele head shown for these rows) (HLA-A*0201 (HLA-A2.1)): 0.041
A2 Bind. (A2.1 HLA molecules): 0.0410

LLGDNQIMV
binding to HLA-A2.1 (column 3; no allele head shown for these rows) (HLA-A*0201 (HLA-A2.1)): 0.043
A2 Bind. (A2.1 HLA molecules): 0.0430

ALGLVCVQA
A11 (HLA-A11 (A*1101)): <0.0002
A2.1 (HLA-A*0201 (HLA-A2.1)): 0.015
A3.2 (HLA-A3.2 (A*0301)): <0.0002
A2 Bind. (A2.1 HLA molecules): 0.0150
A2.1 relative binding (ratio of binding of test peptide relative to standard peptide) (A2.1 HLA molecules): 0.015

QMMPKTGFLV
binding to HLA-A2.1 (column 3; no allele head shown for these rows) (HLA-A*0201 (HLA-A2.1)): 0.050
A2 Bind. (A2.1 HLA molecules): 0.0500

WEELSVMEV
binding to HLA-A2.1 (column 3; no allele head shown for these rows) (HLA-A*0201 (HLA-A2.1)): 0
A2.1 relative binding (ratio of binding of test peptide relative to standard peptide) (A2.1 HLA molecules): 0

IIHLKGDKNSLKCLR [90,0218]
IC50 (DRB1*0802): 5.03 µM
IC50 (DR7 (DRB1*0701)): > 20 µM
IC50 (DRB1*1101; […]): > 20 µM
IC50 (DRB1*0901): > 20 µM

KMADLVGFLV
binding to HLA-A2.1 (column 3; no allele head shown for these rows) (HLA-A*0201 (HLA-A2.1)): 1.5
A2 Bind. (A2.1 HLA molecules): 1.5000

TAEYGDKWLDAKSTWYGKPT [Peptide 620.02]
IC50 (DRB5*0101; DRB5*0101): 10 µM

SMHCKPEEV
binding to HLA-A2.1 (column 3; no allele head shown for these rows) (HLA-A*0201 (HLA-A2.1)): 0.018
A2 Bind. (A2.1 HLA molecules): 0.0180

1.0689 (VLKDAIKDLV) [Peptide 1.0689]
A2.1 (binding capacity) (A2.1 HLA molecules): 0.0002

TMELMIRTV
A2.1 Binding (A2.1 HLA molecules): 0.0029

CLGWLTGMDI
A2 Bind. (A2.1 HLA molecules): 0.0190

LLGRNSFRV
A2 Bind. (A2.1 HLA molecules): 0.0250

ALHLFKTTV
A2 Bind. (A2.1 HLA molecules): 0.0170

MVTTTNPLI
A2 Bind. (A2.1 HLA molecules): 0.0150

Ac-NPTKHKWEAAHVAEQLAA [Peptide 724.01]
IC50 (DRB1*0802): 25 µM

NLEVIHDAL
A2.1 Binding (A2.1 HLA molecules): 0

KMFBQLAKV [Peptide 34.014]
A*0201 (A2.1 HLA molecules): 0.0980

GLCAVFADV
A2.1 relative binding (ratio of binding of test peptide relative to standard peptide) (A2.1 HLA molecules): 0.030

WGLLGFAA
A2.1 relative binding (ratio of binding of test peptide relative to standard peptide) (A2.1 HLA molecules): 0.0009

MLLRLSEPAEL
A2 Bind. (A2.1 HLA molecules): 0.1400

HLYIFATCLGL
binding to HLA-A2.1 (column 3; no allele head shown for these rows) (HLA-A*0201 (HLA-A2.1)): 0.041
A2 Bind. (A2.1 HLA molecules): 0.0410

LMLGTLEEV
binding to HLA-A2.1 (column 3; no allele head shown for these rows) (HLA-A*0201 (HLA-A2.1)): 0.13
A2 Bind. (A2.1 HLA molecules): 0.1300

GLSYDGLLV
A2.1 relative binding (ratio of binding of test peptide relative to standard peptide) (A2.1 HLA molecules): 0.0047

ALMDLLMFS
A2 Bind. (A2.1 HLA molecules): 0.4300

QLVFGIELMEV
binding to HLA-A2.1 (column 3; no allele head shown for these rows) (HLA-A*0201 (HLA-A2.1)): 0.34
A2 Bind. (A2.1 HLA molecules): 0.3400

LLTEVETYV
A2 Bind. (A2.1 HLA molecules): 0.2000

GTLEEVPTA
binding to HLA-A2.1 (column 3; no allele head shown for these rows) (HLA-A*0201 (HLA-A2.1)): 0.013
A2 Bind. (A2.1 HLA molecules): 0.0130

LLPFVQWFV
A2.1 relative binding (ratio of binding of test peptide relative to standard peptide) (A2.1 HLA molecules): 0.63

RLTGGVFLV
A2.1 relative binding (ratio of binding of test peptide relative to standard peptide) (A2.1 HLA molecules): 0.14 and 0.16

ALMPLYASI
A2 Bind. (A2.1 HLA molecules): 0.0760

GLRQLKGAL
A2.1 Binding (A2.1 HLA molecules): 0.0001
